Results from ChEMBL document CHEMBL3576768, “α-Glucosidase Inhibitors from a Xylaria feejeensis Associated with Hintonia latiflora” (J Nat Prod, 2015).

Legend:
Saccharomyces cerevisiae = test: (§1) Inhibition of Saccharomyces cerevisiae alpha-glucosidase using pNPG as substrate preincubated for 10 mins followed by substrate addition measured after 20 mins by spectrophotometric analysis
[1] = as §1

inhibition (Saccharomyces cerevisiae)	IC50 [1] [µM]	Compound
Dose-dependent effect	549	C[C@@H]1OC(=O)c2c(O)cccc2[C@@H]1O
Dose-dependent effect	441	C[C@@H]1OC(=O)c2c(O)cccc2[C@H]1O
	545	C[C@H]1O[C@H](O[C@H]2[C@H](O)[C@@H](O)[C@@H](O[C@H]3[C@H](O)[C@@H](O)C(O)O[C@@H]3CO)O[C@@H]2CO)[C@H](O)[C@@H](O)[C@@H]1N[C@H]1C=C(CO)[C@@H](O)[C@H](O)[C@H]1O (stereo not given in full) [ACARBOSE]
